Assay results reported in ChEMBL document CHEMBL1156950, “Synthesis and biological evaluation of 4-anilinoquinolines as potent inhibitors of epidermal growth factor receptor” (J Med Chem, 2010).

Key:
[1] = target: Serine/threonine-protein kinase PAK 2 (Homo sapiens) (UniProt Q13177); assay: Inhibition of PAK2 at 10 uM assessed as residual activity by [33P]ATP radioactive filter binding assay relative to control
[2] = target: Ribosomal protein S6 kinase beta-1 (Homo sapiens) (UniProt P23443); assay: Inhibition of S6K1 at 10 uM assessed as residual activity by [33P]ATP radioactive filter binding assay relative to control
Chain of Ribosomal protein S6 kinase beta-1 (Homo sapiens) (P23443 whole entry, looked up): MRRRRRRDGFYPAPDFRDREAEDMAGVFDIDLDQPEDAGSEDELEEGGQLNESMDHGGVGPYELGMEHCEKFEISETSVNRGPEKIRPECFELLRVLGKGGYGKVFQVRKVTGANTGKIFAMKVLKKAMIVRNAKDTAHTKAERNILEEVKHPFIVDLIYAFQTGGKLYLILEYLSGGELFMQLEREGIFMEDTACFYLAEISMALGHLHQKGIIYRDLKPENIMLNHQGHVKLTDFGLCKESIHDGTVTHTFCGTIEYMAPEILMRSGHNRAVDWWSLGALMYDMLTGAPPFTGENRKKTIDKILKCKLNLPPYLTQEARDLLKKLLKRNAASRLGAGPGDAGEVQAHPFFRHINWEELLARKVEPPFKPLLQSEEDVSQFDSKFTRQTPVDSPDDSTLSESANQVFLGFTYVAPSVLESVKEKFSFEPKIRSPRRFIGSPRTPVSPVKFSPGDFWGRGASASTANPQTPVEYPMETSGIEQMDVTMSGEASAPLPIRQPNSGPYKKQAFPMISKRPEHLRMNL

[3] = target: Epidermal growth factor receptor (Homo sapiens, UniProt P00533); assay: Inhibition of 746-750 sequence deleted EGFR autophosphorylation in human PC9 cells after 24 hrs by immunoblotting; assay type: cell-based; conditions: PC-9
Chain of Epidermal growth factor receptor (Homo sapiens, UniProt P00533) (P00533 whole entry): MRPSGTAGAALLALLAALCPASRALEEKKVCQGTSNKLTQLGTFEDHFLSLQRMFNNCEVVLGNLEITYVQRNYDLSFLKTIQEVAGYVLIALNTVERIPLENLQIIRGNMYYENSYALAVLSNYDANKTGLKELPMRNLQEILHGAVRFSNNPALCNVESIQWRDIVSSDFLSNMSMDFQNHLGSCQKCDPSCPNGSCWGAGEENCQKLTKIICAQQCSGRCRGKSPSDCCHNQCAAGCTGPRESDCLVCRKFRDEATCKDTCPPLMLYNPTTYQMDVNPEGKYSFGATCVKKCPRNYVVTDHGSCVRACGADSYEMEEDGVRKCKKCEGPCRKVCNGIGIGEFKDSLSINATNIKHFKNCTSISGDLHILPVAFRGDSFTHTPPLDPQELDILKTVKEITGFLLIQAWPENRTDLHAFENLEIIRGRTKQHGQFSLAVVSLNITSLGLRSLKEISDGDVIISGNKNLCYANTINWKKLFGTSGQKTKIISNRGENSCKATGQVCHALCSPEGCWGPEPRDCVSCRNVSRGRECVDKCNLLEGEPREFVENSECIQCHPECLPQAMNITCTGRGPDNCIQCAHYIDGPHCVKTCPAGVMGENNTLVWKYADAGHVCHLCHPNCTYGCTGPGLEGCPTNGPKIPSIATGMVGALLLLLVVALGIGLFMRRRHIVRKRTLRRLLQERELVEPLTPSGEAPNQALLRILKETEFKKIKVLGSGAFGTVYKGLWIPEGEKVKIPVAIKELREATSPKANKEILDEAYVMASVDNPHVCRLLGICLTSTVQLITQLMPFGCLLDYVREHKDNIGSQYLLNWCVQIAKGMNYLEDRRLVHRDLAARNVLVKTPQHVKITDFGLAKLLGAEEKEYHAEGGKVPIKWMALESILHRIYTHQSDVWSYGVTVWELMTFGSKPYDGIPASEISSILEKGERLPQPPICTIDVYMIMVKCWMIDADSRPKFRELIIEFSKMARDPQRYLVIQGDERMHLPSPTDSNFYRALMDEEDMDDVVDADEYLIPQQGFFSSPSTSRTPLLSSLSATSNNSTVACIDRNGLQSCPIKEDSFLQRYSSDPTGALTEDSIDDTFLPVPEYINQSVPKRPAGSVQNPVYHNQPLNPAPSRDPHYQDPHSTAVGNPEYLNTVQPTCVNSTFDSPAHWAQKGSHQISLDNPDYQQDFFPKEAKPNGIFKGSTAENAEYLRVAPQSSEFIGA

[4] = target: Mitogen-activated protein kinase 1 (Homo sapiens) (UniProt P28482); assay: Inhibition of ERK2 at 10 uM assessed as residual activity by [33P]ATP radioactive filter binding assay relative to control
Chain of Mitogen-activated protein kinase 1 (Homo sapiens) (P28482 whole entry): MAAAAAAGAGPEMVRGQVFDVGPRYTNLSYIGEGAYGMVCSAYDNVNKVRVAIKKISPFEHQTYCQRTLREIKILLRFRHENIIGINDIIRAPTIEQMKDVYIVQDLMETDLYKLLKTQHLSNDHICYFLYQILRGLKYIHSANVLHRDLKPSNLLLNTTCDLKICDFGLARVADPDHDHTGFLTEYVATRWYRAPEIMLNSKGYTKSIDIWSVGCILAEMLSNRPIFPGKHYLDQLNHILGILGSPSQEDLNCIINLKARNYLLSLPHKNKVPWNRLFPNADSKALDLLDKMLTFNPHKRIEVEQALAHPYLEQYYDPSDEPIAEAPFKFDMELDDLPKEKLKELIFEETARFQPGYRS

[5] = system: Lymphokine-activated killer T-cell-originated protein kinase; assay: Inhibition of PBK1 at 10 uM assessed as residual activity by [33P]ATP radioactive filter binding assay relative to control
[6] = target: Epidermal growth factor receptor (Homo sapiens, UniProt P00533, L858R); assay: Inhibition of EGFR Leu858Arg mutant by HTRF assay; assay type: protein assay
Chain of Epidermal growth factor receptor (Homo sapiens, UniProt P00533, L858R) (P00533 25-1210 L858R limits assumed): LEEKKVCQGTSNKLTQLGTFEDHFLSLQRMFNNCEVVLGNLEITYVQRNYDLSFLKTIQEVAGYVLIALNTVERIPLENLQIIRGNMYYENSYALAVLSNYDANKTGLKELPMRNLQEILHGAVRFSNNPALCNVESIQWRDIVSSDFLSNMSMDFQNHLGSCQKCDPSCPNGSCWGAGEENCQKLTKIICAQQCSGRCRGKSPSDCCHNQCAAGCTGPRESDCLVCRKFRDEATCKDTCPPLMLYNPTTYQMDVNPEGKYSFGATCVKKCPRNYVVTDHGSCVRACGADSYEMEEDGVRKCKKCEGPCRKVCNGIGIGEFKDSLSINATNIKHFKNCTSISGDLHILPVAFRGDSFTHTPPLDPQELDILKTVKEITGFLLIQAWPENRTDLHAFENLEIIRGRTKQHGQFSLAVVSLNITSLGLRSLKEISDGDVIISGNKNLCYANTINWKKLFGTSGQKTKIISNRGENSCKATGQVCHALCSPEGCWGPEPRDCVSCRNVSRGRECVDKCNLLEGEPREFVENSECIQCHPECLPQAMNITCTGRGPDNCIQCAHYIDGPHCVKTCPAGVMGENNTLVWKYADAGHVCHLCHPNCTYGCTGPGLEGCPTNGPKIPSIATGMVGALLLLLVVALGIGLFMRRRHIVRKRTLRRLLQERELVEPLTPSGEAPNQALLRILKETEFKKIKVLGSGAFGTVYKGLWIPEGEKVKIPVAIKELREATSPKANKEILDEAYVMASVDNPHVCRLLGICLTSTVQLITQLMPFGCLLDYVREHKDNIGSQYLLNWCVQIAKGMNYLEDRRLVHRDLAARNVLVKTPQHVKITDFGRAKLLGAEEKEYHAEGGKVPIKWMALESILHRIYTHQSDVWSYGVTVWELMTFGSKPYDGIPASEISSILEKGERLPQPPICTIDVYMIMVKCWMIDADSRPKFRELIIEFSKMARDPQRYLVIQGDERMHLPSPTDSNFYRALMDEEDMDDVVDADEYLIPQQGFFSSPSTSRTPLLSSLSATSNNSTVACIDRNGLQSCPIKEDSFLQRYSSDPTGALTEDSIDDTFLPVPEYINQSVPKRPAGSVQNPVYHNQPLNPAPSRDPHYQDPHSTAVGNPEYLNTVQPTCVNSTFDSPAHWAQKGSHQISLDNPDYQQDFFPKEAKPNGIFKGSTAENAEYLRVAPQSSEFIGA

[7] = system: 3-phosphoinositide-dependent protein kinase 1; assay: Inhibition of PDK1 at 10 uM assessed as residual activity by [33P]ATP radioactive filter binding assay relative to control
[8] = target: Serine/threonine-protein kinase 26 (Homo sapiens) (UniProt Q9P289); assay: Inhibition of MST4 at 10 uM assessed as residual activity by [33P]ATP radioactive filter binding assay relative to control
Chain of Serine/threonine-protein kinase 26 (Homo sapiens) (Q9P289 2-416 limits assumed): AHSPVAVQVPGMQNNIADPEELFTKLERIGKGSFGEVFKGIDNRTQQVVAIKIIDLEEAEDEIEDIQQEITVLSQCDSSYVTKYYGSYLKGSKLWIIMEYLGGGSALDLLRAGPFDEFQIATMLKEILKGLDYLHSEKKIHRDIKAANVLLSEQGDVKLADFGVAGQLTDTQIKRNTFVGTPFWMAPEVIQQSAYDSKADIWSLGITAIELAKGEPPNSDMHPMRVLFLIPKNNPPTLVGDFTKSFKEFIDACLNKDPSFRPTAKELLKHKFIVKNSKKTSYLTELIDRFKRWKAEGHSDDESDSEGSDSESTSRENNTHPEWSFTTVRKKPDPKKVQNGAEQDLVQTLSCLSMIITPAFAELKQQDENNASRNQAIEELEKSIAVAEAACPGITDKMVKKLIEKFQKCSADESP

Chain of Serine/threonine-protein kinase PAK 2 (Homo sapiens) (Q13177 whole entry): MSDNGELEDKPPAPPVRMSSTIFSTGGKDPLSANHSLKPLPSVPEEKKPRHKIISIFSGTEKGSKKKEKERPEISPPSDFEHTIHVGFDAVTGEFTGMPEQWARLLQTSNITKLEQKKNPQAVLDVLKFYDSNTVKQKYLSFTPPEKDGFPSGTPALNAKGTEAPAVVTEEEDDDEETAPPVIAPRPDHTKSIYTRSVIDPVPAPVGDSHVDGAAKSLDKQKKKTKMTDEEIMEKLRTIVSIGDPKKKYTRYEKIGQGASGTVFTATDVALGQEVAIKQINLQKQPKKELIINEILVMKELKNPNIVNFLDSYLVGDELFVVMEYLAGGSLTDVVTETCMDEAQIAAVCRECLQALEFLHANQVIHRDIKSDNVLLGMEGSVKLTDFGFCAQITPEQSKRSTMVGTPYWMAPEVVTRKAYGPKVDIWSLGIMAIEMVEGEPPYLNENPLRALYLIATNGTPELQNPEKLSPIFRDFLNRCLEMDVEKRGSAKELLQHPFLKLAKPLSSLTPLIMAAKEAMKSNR

**Q.** How did the Activity [1] turn out when CN(C)CCCC(=O)Nc1ccc2nccc(Nc3cccc(Br)c3)c2c1 was run?
**A.** 79%

**Q.** And the Activity [2]?
**A.** 87%

**Q.** And the Activity [3]?
**A.** Dose-dependent effect

**Q.** What about the Activity [4] of the same compound?
**A.** 88%

**Q.** And the Activity [5]?
**A.** 84%

**Q.** What about the IC50 [6] of the same compound?
**A.** 0.5 nM

**Q.** And the Activity [7]?
**A.** 78%

**Q.** What about the Activity [8] of the same compound?
**A.** 80%
